{"source": "patent US10071990B2", "about": "“Site-specific orthogonal labeling of the carboxy terminus of α-tubulin in live cells” (The Research Foundation for The State University of New York, priority 2013, dated 2018)", "key": {"[1]": {"experiment": "Absorption and fluorescence spectra and quantum yield", "type": "physicochemical", "conditions": "in methanol at 25° C.", "description": "To test this hypothesis, the absorption and fluorescence spectra of coumarin hydrazine and the salicylaldehyde hydrazone of coumarin hydrazine were measured, which serves as a model compound for the protein-bound hydrazone. Hydrazone formation causes a shift in both the absorption and emission maxima of coumarin hydrazine and a significant increase in quantum yield (Table 2). Thus, as a result of the difference in the spectroscopic window and the quantum yields of coumarin hydrazine and its salicylaldehyde hydrazone, fluorescence from unreacted coumarin hydrazine can be averted."}, "tubulin tyrosine ligase": {"biological_target": "T1, tubulin tyrosine ligase (Homo sapiens, UniProt Q8NG68)", "T1 construct": "made in house; host or cells: Escherichia coli BL21", "T1 sequence (Q8NG68 1-377)": "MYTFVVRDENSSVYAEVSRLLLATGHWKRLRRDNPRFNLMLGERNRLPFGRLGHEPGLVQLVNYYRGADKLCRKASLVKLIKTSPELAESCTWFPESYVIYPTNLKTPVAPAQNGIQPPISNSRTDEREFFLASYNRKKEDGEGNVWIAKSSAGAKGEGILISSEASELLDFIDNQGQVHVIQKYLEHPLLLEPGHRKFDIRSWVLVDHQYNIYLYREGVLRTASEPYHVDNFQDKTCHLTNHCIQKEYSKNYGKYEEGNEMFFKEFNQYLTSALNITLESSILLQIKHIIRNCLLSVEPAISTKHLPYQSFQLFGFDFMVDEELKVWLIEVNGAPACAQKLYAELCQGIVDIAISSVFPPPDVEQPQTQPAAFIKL", "experiment": "Inhibition of [3H]-L-tyrosine incorporation into tubulin by TTL", "type": "biochemical", "description": "Tubulin Tyrosine Ligase. An initial supply of TTL was a gift of Prof. Dr. Jürgen Wehland and Dr. Christian Erck (Gesellschaft für Biotechnologische Forschung, Germany) and was stored at −80° C. Human TTL was prepared using expression vector p Receiver 05x (Genecopoeia, Md.), transformed into the Escherichia coli expression strain BL21.\n[3H]-Tyr Incorporation Assay. TTL was thawed and diluted to 1 mg mL^−1 immediately before use. Detyrosinated tubulin (10 μM tubulin) in TTL buffer was combined with […] μL^−1 [3H-Tyr], 0.1 μg μL^−1 TTL, and various concentrations of inhibitor. The mixture was allowed to react for 30 min at 37° C. A 35 μL aliquot of the sample was placed onto DEAE chromatography paper (Whatman) and allowed to dry for 30 min. The protein was fixed using 200 μL of 10% acetic acid and allowed to dry for 10 min. Excess [3H-Tyr] was removed by 2 washes with 3.5 mL of 100% ethanol. The paper was allowed to dry for 30 min and then was combined with 10 mL of Scintiverse (BD) scintillation fluid. The amount of [3H]-tyrosine on each filter was determined using a β-counter."}, "PC3 cells [2]": {"test_system": "PC3 cells", "experiment": "Effect on cell morphology and microtubule network (immunofluorescence)", "type": "cell-based", "conditions": "24 hour treatment followed by treatment with a fluorophore", "description": "PC3 cells were grown in F12K medium supplemented with unnatural amino acid for 24 h. Cells were washed and then treated with fluorophores for 24 h before fixing with methanol. Cells were then processed for immunofluorescence using tubulin antibody (red) and DAPI (blue).\nPC3 cells were grown in F12K medium supplemented with unnatural amino acid for 24 h. Cells were washed and treated with a fluorophore for 24 h before fixing with methanol. Cells were then processed for immunofluorescence using tubulin antibody (red) and DAPI (blue)."}, "cells": {"test_system": "cells", "experiment": "SRB assay after 96 h treatment with amino acid", "type": "cell-based", "conditions": "for IC50: cells treated 96 h, read-out: IC 50 (toxicity)"}, "PC3 cells [3]": {"test_system": "PC3 cells", "experiment": "SRB cytotoxicity of amino acid and fluorophore on live cells", "type": "cell-based", "conditions": "24 hour period", "description": "PC3 cells were grown in medium supplemented with unnatural amino acid or vehicle for 24 h. Cells were then treated with fluorophore or vehicle for 24 h, following which an SRB assay was performed to assess the cytotoxicity of the molecules.\nFIGS. 12A-12C show graphs of cytotoxicity of amino acid and fluorophore on live cells. The labeling technique is not detrimental to PC3 cell survival. PC3 cells were grown in medium supplemented with unnatural amino acid or vehicle (2% v/v, 10 mM phosphate buffer, pH 7) for 24 h. Cells were then treated with fluorophore or vehicle (1% v/v DMSO) for 24 h. Following which SRB assay was performed to assess the cytotoxicity of the molecules."}, "[4]": {"experiment": "Kinetics of hydrazone formation by absorption difference spectroscopy", "conditions": "reaction with 3-formyltyrosine, PME buffer pH 6.9, 25° C.", "source_text": "Removal and replacement of the C-terminal tyrosine of α-tubulin can be assessed by Western blot. […] The presence of a carbonyl in α-tubulin was confirmed reacting the protein with dinitrophenylhydrazine (DNPH) followed L-tyrosine or 3-formyltyrosine as described under Methods and then subjected to SDS-PAGE. Top: Western blot with tyrosinated α-tubulin antibody (Sigma-Aldrich TUB-1A2). Bottom: Coomassie stain. Lane 1: Tubulin. Lane 2: Tubulin treated with CPA. Lane 3: CPA-treated tubulin retyrosinated with tyrosine. Lane 4: CPA-treated tubulin retyrosinated with 3-formyltyrosine. The mass of protein loaded each well was 0.66 μg for the Western blot and 10 μg for the protein stain. Hydrazone Formation: Effect of the Structure of the Nucleophile. Reactions of aldehydes and ketones with hydrazines, hydroxylamines, and amines have been extensively studied (33). The rate vs pH curve is bellshaped; the maximum reaction rate is around the pKa of the hydrazine. […]\nKinetic Measurements. Kinetics of hydrazone formation were measured using absorption difference spectroscopy. […] The change in absorbance for one wavelength was selected from the spectral data, and these values were plotted as a function of time. The data were analyzed as a single pseudo-first-order reaction and were fit to the appropriate equation using SigmaPlot 10.0."}, "[5]": {"conditions": "from reference 34; cited from earlier work"}, "[6]": {"conditions": "inhibition of tubulin tyrosine ligase, 10 μM detyrosinated tubulin, 30 min at 37° C."}}, "note": "Where two headings read alike, the source gives them in different places.", "data": [{"molecule": "Cc1cc(=O)oc2cc(NN=Cc3ccccc3O)ccc12", "values": [{"measurement": "Abs max", "setting": "[1]", "result": 380, "unit": "nm"}, {"measurement": "Em max", "setting": "[1]", "result": 459, "unit": "nm"}, {"measurement": "φ (quantum yield)", "setting": "[1]", "result": 0.131}]}, {"molecule": "Nc1cc(C[C@H](N)C(=O)O)ccc1O", "note": "[3-Aminotyrosine]", "values": [{"measurement": "Ki", "setting": "tubulin tyrosine ligase; [6]", "result": 200, "unit": "µM"}]}, {"molecule": "[N-]=[N+]=Nc1cc(C[C@H](N)C(=O)O)ccc1O", "note": "[3-Azidotyrosine]", "values": [{"measurement": "Ki", "setting": "tubulin tyrosine ligase", "result": 200, "unit": "µM"}]}, {"molecule": "N[C@@H](Cc1ccc(O)c(C=O)c1)C(=O)O", "note": "[3-Formyltyrosine]", "values": [{"measurement": "effect on microtubule network and cell morphology", "setting": "PC3 cells [2]", "result": "does not alter the microtubule network or cell morphology"}, {"measurement": "Ki", "setting": "tubulin tyrosine ligase", "result": 300, "unit": "µM"}, {"measurement": "IC50", "setting": "cells", "result": "> 25", "unit": "µM"}]}, {"molecule": "Nc1ccc(C[C@H](N)C(=O)O)cc1", "note": "[4-Aminophenylalanine]", "values": [{"measurement": "Ki", "setting": "tubulin tyrosine ligase", "result": "> 4000", "unit": "µM"}]}, {"molecule": "CC(=O)c1cc(C[C@H](N)C(=O)O)ccc1O", "note": "[AcY, 3-acetyltyrosine]", "values": [{"measurement": "cytotoxicity compared with 3fY", "setting": "PC3 cells [3]", "result": "less cytotoxic over 24 hour period than 3fY"}, {"measurement": "effect on microtubule network and cell morphology", "setting": "PC3 cells [2]", "result": "does not alter the microtubule network or cell morphology"}, {"measurement": "IC50", "setting": "cells", "result": "> 5000", "unit": "µM"}]}, {"molecule": "N[C@@H](Cc1ccc(O)cc1)C(=O)O", "note": "[Tyrosine]", "values": [{"measurement": "Ki", "setting": "tubulin tyrosine ligase; [6]", "result": 25, "unit": "µM"}]}, {"molecule": "NNC(=O)[C@@H](N)Cc1ccc(O)cc1", "note": "[Yzide, tyrosine hydrazide, reference compound]", "values": [{"measurement": "effect on microtubule network and cell morphology", "setting": "PC3 cells [2]", "result": "does not alter the microtubule network or cell morphology"}, {"measurement": "toxicity", "setting": "cells; 5 mM ligand, 96 h", "result": "No toxicity observed"}, {"measurement": "IC50", "setting": "cells", "result": "> 5000", "unit": "µM"}]}, {"molecule": "Cc1cc(=O)oc2cc(NN)ccc12", "note": "[coumarin hydrazine, 7-hydrazino-4-methyl coumarin]", "values": [{"measurement": "time to complete hydrazone formation", "setting": "[4]", "result": "≤ 120", "unit": "min"}, {"measurement": "second-order rate constant of hydrazone formation", "setting": "[4]; no catalyst", "result": 0.883, "unit": "M⁻¹ s⁻¹"}, {"measurement": "Abs max", "setting": "[1]", "result": 360, "unit": "nm"}, {"measurement": "Em max", "setting": "[1]", "result": 432, "unit": "nm"}, {"measurement": "φ (quantum yield)", "setting": "[1]", "result": 0.046}]}, {"molecule": "NNc1ccccc1", "note": "[phenyl hydrazine]", "values": [{"measurement": "pKa", "setting": "[5]", "result": 5.3}]}, {"molecule": "Phenyl hydrazide", "values": [{"measurement": "pKa", "setting": "[5]", "result": 3.1}]}]}
